For data set [1], the system named is collagen induced arthritis. Kind of data set: Collagen-induced arthritis (CIA) mouse model. As to conditions: 1 mg/kg subcutaneously daily from 2nd immunization (Day 21), DBA/1 mice, FIG. 3. Format: in vivo.
For data set [2], the system named is activated T lymphocytes. Kind of data set: Cytotoxicity with chromogenic reporter of mitochondrial activity, activated T lymphocytes. The following applies: 48 hr, absorbance 490 nm, FIG. 1 or 2. In kind it is cell-based, Human. The procedure:
(§1) Human peripheral blood mononuclear cells (PBMC), were purchased from Clonetics, San Diego (cat. no. CC2702). These cells were primarily enriched in T lymphocytes by a process of leukapheresis and density gradient centrifugation (Clonetics), and contain some monocytes and no B lymphocytes or Dendritic cells. Cells are cultured (0.75×10^6 cells/ml) in RPMI 1640 medium containing 10% fetal bovine serum (Gibco), 2 mM L-Glutamine, 25 mM Hepes, 1 mM sodium pyruvate, 1 mM non essential aminoacids (NEAA) and 1% penicillin/streptomycin solution. Cells were then activated with 100 ng/ml of murine monoclonal antibody to the human T cell receptor (Liu, Y-C., et al., J. Biol. Chem. 272: 9979 (1996)). Cells were incubated at 37° C. in a 5% CO2-95% humidity incubator for 3 days. […] In a parallel experiment, resting T lymphocytes that were not activated in the above mentioned method were used directly in an experiment.
(§2) An aliquot of 45 μl of activated or resting T lymphocytes (containing 10^5 cells) was added to wells of a 96-well microtiter plate containing 5 μl of a 10% DMSO in RPMI 1640 medium containing different dilutions of the test compounds. […] Using a plate reader (Model 1420, Wallac Instruments), samples were read at absorbance 490 nm.

Data set [3] has as its system resting T lymphocytes. The experiment in a line: Cytotoxicity with chromogenic reporter of mitochondrial activity, resting T lymphocytes. Format: cell-based, Human. As to conditions: 48 hr, absorbance 490 nm, FIG. 1 or 2. The procedure: as §1, §2
The test system of data set [4] is activated T lymphocytes. Kind of data set: Caspase cascade activation with fluorogenic reporter, activated T lymphocytes. Format: cell-based, Human. As to conditions: for Caspase Activity in Activated Cells 24 Hr Induction (Ratio): OKT3-activated human T lymphocytes, 24 hr incubation, ratio Net Sample RFU/Net Control RFU; for Induction of apoptosis in activated T cells (in words): 24 hr. The method, then: (§3) Human peripheral blood mononuclear cells (PBMC), were purchased from Clonetics, San Diego (cat. No. CC2702). These cells were primarily enriched in T lymphocytes by a process of leukapheresis and density gradient centrifugation (Clonetics), and contain some monocytes and no B lymphocytes or Dendritic cells. Cells are cultured (0.75×10^6 cells/ml) in RPMI 1640 medium containing 10% fetal bovine serum (Gibco), 2 mM L-Glutamine, 25 mM Hepes, 1 mM sodium pyruvate, 1 mM non-essential aminoacids (NEAA) and 1% penicillin/streptomycin solution. Cells were then activated with 100 ng/ml of murine monoclonal antibody (OKT3) to the human T cell receptor (Liu, Y-C., et al., J. Biol. Chem 272: 9979 (1996)). Cells were incubated at 37° C. in a 5% CO2-95% humidity incubator for 3 days. […] In a parallel experiment, resting T lymphocytes that were not activated by the above method were used directly in an experiment. An aliquot of 45 μl of activated or resting T lymphocytes (containing 10^5 cells) was added to a well of a 96-well microtiter plate containing 5 μl of a 10% DMSO in RPMI 1640 medium containing serial 2-fold dilution of the different test compounds starting at a concentration of 10 uM.
(§4) An aliquot of 45 μl of cells was also added to a well of a 96-well microtiter plate containing 5 μl of a 10% DMSO in RPMI 1640 medium without the test compounds as the control sample. The samples were gently mixed by agitation and then incubated at 37° C. for 24 hr in a 5% CO2-95% humidity incubator. After incubation, the samples were removed from the incubator and 50 μl of a solution containing 20 μM of N-(Ac-DEVD)-N′-ethoxycarbonyl-R110 (SEQ ID NO. 1) fluorogenic substrate U.S. Pat. No. 6,342,611; WO 99/18856), 20 mM DTT(Sigma) in Hanks Balanced Salt Solution (HBSS, Gibco) was added. The samples were mixed by agitation and incubated for 1 hr at room temperature. Using a fluorescent plate reader (Model 1420, Wallac Instruments), an initial reading (T=0) was made approximately […] after addition of the substrate solution, employing excitation at 485 nm and emission at 530 nm, to determine the background fluorescence of the control sample. After the 1 hr incubation, the samples were read for fluorescence as above (T=1 hr).
(§5) Calculation: Measured relative fluorescence unit (RFU) values were used to calculate the gain in fluorescence of the sample with the test compound as follows:
(§6) Sample RFU(T=1 hr)−Sample RFU(T=0)=Net Sample RFU (4)
(§7) and the background gain in fluorescence of the control sample (lacking the test compound) as follows:
(§8) Control RFU(I=1 hr)−Control RFU(I=0)=Net Control RFU (5)
(§9) The relative potency of a given test compound is given by the following ratio:
(§10) (Net Sample RFU)/(Net Control RFU) (6)

Data set [5] has as its system resting T lymphocytes. Kind of data set: Caspase cascade activation with fluorogenic reporter, resting T lymphocytes. As to conditions: for Induction of apoptosis in resting T cells (in words): 24 hr; for Caspase Induction in Resting T Cells 24 Hr Induction (Ratio): resting human T lymphocytes, 24 hr incubation, ratio Net Sample RFU/Net Control RFU. Format: cell-based, Human. The procedure:
as §3, §4, §5, §6, §7, §8, §9, §10

As to `C[C@]12C=CC(=O)C=C1CC[C@@H]1[C@@H]2[C@@H](O)C[C@@]2(C)[C@H]1CC[C@]2(O)C(=O)CO` [predisolone, Prednisolone], the “Decrease in cumulative CIA score” value in data set [1] amounted to 75%.

Regarding `CN(Cc1cnc2nc(N)nc(N)c2n1)c1ccc(C(=O)N[C@@H](CCC(=O)O)C(=O)O)cc1` [methotrexate], in the data set with activated T lymphocytes [2], the “Cytotoxicity to activated T cells (in words)” value was “only cytotoxic to activated”. Moreover, in the data set with resting T lymphocytes [3], the “Cytotoxicity to resting T cells (in words)” value was “not to resting T lymphocytes”.

With `CN[C@@H]1C[C@H]2O[C@@](C)([C@@H]1OC)n1c3ccccc3c3c4c(c5c6ccccc6n2c5c31)C(=O)NC4` [staurosporine], in the data set with activated T lymphocytes [2], the “Cytotoxicity to activated T cells (in words)” value was “cytotoxic to both activated and resting T cells”. Also, in the data set on resting T lymphocytes [3], the “Cytotoxicity to resting T cells (in words)” value was “cytotoxic to both activated and resting T cells”.

For `CC(C)=CCC[C@]1(C)C=Cc2c(O)c3c(c(CC=C(C)C)c2O1)O[C@]12C(=C[C@@H]4C[C@H]1C(C)(C)O[C@@]2(C/C=C(/C)C(=O)O)C4=O)C3=O` [gambogic acid], in the data set with activated T lymphocytes [4], the “Caspase Activity in Activated Cells 24 Hr Induction (Ratio)” value is 3.4; the “Induction of apoptosis in activated T cells (in words)” value is “induced apoptosis in both activated and resting T cells”. Further, in the data set with resting T lymphocytes [5], the “Induction of apoptosis in resting T cells (in words)” value was “induced apoptosis in both activated and resting T cells”; the “Caspase Induction in Resting T Cells 24 Hr Induction (Ratio)” value amounted to 2.0.

In the case of `Cc1ccc(C2CC(c3c(O)cc(C)oc3=O)=NCCS2)cc1` (stereo not shown) [5-(4-hydroxy-6-methyl-2H-pyran-2-one-3-yl)-7-(4-methylphenyl)-2,3,6,7-tetrahydro-1,4-thiazepine], in the data set on activated T lymphocytes [4], the “Caspase Activity in Activated Cells 24 Hr Induction (Ratio)” value is given as 1.0 and the “Induction of apoptosis in activated T cells (in words)” value is on record as “did not induce apoptosis in either cell type”. Besides, in the data set on resting T lymphocytes [5], the “Induction of apoptosis in resting T cells (in words)” value was “did not induce apoptosis in either cell type” and the “Caspase Induction in Resting T Cells 24 Hr Induction (Ratio)” value was found to be 1.0.

Source of the values: patent US6828091B2, “Method of identifying immunosuppressive agents” (Cytovia, Inc., priority 2000, dated 2004).
